According to patent US9205085B2, “Tricyclic amino containing compounds for treatment or prevention of symptoms associated with endocrine dysfunction” (Emory University, priority 2011, dated 2015):
“And” between values parts separate entries of the source, which are not always exact repeats. Equal values may be shown once.

How the values were obtained:
SDF-1/CXCR4 [1] = molecular target: T1, SDF-1/CXCR4 (Homo sapiens (Human), UniProt P61073); test: cAMP assay (SDF-1/CXCR4-mediated cAMP reduction); format: cell-based; conditions: for concentration effective in counteracting/blocking SDF-1 function: cAMP reduction by SDF-1; for effect of SDF-1 on cAMP reduction: pre-treatment with compound, SDF-1 EC80 150 ng/ml
T1 sequence (P61073 whole entry): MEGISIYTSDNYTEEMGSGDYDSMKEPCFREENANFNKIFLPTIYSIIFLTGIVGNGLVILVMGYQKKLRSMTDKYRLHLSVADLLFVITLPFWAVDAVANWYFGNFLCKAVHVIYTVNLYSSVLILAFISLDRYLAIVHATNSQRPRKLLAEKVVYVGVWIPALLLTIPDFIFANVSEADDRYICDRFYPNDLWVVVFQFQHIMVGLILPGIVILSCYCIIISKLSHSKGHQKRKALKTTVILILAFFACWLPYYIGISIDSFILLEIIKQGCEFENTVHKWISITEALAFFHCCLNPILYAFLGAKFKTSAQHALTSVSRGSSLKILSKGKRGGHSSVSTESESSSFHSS
Experimental: Because the major signaling pathway of CXCR4/SDF-1 involves the pertussis toxin-sensitive G protein Gi, compounds described herein were tested as to whether they inhibited SDF-1/CXCR4-mediated cAMP reduction. The absorption increase at 665 nm was determined by varying the concentration of SDF-1 (0-200 ng/ml) to determine EC80 to be 150 ng/ml.

[2] = 28-day oral toxicology study in rats; format: in vivo; conditions: 250 and 600 mg/kg orally once per day for 28 days
Experimental: (§1) In initial studies, three groups of rats (5 males and 5 females per group) were dosed with 0, 250 and 600 mg/kg of MSX-122 orally once per day for 28 days. […] A 5-day repeat dose study was carried out in two non-naïve cynomolgus monkeys (1 male and 1 female) and two naïve cynomolgus monkeys (1 male and 1 female) dosed with 1,000 and 2,000 mg/kg, respectively, orally once per day for 5 days.

[3] = Initial pharmacokinetic study in mice; format: in vivo; conditions: intraperitoneally (IP) and orally
Description: (§2) Oral bioavailability and sustained plasma exposure was consistently observed in multiple species for certain compounds.

[4] = Pharmacokinetic/pharmacodynamic study in cynomolgus monkeys; format: in vivo
Description: as §2

[5] = 5-day repeat dose study in cynomolgus monkeys; format: in vivo
Experimental: as §1

hERG channel = hERG channel (Homo sapiens (Human), UniProt Q12809); test: hERG channel current (IKr) inhibition; format: biochemical
Chain of hERG channel (Q12809 whole entry): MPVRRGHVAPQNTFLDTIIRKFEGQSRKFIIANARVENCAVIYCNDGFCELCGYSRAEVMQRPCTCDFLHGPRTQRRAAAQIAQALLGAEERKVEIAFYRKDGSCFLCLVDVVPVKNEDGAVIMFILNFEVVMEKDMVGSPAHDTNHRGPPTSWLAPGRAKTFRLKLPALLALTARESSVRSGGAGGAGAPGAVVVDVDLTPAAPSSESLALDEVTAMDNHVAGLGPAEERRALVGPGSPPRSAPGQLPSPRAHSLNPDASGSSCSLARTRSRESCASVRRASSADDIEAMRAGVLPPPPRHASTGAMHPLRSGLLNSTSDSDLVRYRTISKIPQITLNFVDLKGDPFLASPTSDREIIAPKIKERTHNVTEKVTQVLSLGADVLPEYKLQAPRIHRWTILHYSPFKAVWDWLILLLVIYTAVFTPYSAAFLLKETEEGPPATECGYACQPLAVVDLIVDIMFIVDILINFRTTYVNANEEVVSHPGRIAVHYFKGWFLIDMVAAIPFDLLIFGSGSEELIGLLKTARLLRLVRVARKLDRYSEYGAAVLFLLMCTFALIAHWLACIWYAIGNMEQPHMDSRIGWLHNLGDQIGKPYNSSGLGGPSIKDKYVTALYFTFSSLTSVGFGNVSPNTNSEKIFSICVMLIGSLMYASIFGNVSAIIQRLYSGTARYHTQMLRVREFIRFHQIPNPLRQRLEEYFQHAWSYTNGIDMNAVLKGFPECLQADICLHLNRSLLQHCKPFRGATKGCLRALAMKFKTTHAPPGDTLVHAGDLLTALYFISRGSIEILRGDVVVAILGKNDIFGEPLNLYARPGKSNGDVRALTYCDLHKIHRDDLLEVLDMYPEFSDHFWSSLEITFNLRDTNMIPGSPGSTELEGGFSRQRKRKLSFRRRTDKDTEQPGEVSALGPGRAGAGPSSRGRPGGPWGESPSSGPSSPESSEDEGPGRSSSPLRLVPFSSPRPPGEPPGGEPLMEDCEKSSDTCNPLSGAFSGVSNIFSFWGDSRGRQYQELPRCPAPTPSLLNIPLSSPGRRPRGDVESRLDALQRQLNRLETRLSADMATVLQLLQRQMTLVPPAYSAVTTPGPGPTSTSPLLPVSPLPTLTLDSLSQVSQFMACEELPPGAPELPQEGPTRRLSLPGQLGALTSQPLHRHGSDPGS
Experimental: (§3) Sufficiently scorable cells in the presence of S9 were available for 4 hour treatment and in the absence of S9 for a 20 hour treatment. Finally, MSX-122 was tested for its potential to interfere with the rapid delayed rectifier current (IKr) in human ventricles through the cardiac potassium channel, hERG since inhibition of IKr has been reported to be the most common cause of cardiac action potential prolongation by non-cardiac drugs.

hERG channel (IKr) = hERG channel (IKr) (Homo sapiens (Human), UniProt Q12809); test: hERG channel current (IKr) inhibition; format: biochemical; conditions: human; 1 μM; read-out: inhibition of hERG channel currents
Chain of hERG channel (IKr) (Q12809 whole entry): as above
Experimental: as §3

In vitro Ames test = format: cell-based
hot flashes = test: Treatment of hot flashes in a patient; format: in vivo, human; conditions: person, 50 mg/day oral, after third treatment
Experimental: An approximately 70 kg person with a history of aggressive high grade serous carcinomy in their right fallopian tube, a complete hysterectomy and bilateral oophorectomy after previous treatments with VEGF-Trap and docetaxel, Carboplatin and taxol and doxil was treated with MSX-122, 50 mg/day oral.

[6] = Pharmacokinetic study in rats; format: in vivo; conditions: 10 mg/kg
Description: as §2

[7] = molecular target: SDF-1 binding domain of CXCR4 (Homo sapiens (Human), UniProt P61073); test: Competitive binding assay against biotin-labeled TN14003; conditions: competition with biotin-labeled TN14003; read-out: Effective concentrations (EC50)
Chain of SDF-1 binding domain of CXCR4 (P61073 whole entry, the tested form may be a part): as the sequence (P61073 whole entry) above
Description: Aa competitive binding assay using biotin-labeled TN14003 and streptavidin-conjugated rhodamine was developed to determine the binding efficiency of new chemical entities to the SDF-1 binding domain of CXCR4.

CHO cells = test: In vitro chromosome aberration screening test; format: cell-based; conditions: any dose level up to 2 mM, 4 hour with S9, 20 hour without S9
Experimental: as §3

SDF-1/CXCR4 [8] = molecular target: T1, SDF-1/CXCR4; test: IC50 vs SDF-1 (table of specific compounds); format: binding
[9] = cynomolgus monkeys, oral 5 and 10 mg/kg
[10] = cynomolgus monkeys, 1,000 and 2,000 mg/kg orally once per day for 5 days

c1cc(CN2CCCNCCNCCCNCC2)ccc1CN1CCCNCCNCCCNCC1 [AMD-3100, reference compound]
concentration effective in counteracting/blocking SDF-1 function (SDF-1/CXCR4 [1]): ~1000 nM
effect of SDF-1 on cAMP reduction (SDF-1/CXCR4 [1]): blocked significantly in a dose-dependent manner

c1cnc(NCc2ccc(CNc3ncccn3)cc2)nc1 [MSX-122, N-(4-((pyrimidin-2-ylamino)methyl)benzyl)-pyrimidin-2-amine]
signs or symptoms of toxicity during the study [2]: No signs or symptoms of toxicity
toxicity upon termination from blood serum chemistry or gross necropsy [2]: no toxicity was observed
plasma concentrations maintained throughout the study ([2]; after day 1): micromolar
Cmax ([2]; both sexes, rat, in vivo, po): 2000 ng/mL to 4000 ng/mL and 6.8 µM to 13.6 µM
blood levels [3]: sustained blood levels
half lives [4, 9]: support once per day dosing
plasma concentrations [4, 9]: micromolar
pharmacokinetics / dose proportionality of plasma levels ([4]; female cynomolgus monkeys, oral 1, 5 and 10 mg/kg): sustained pharmacokinetics with plasma levels that were relatively dose proportional
Cmax ([5]; both sexes, cynomolgus monkey, in vivo, po, cynomolgus monkeys, 1,000 and 2,000 mg/kg orally once per day for 5 days): 5.1 µM to 12 µM and 1500 ng/mL to 3500 ng/mL
gross necropsy ([5]; cynomolgus monkeys dosed at 2000 mg/kg): no abnormalities or signs of toxicity
blood serum chemistry [5, 10]: no abnormalities
plasma concentrations maintained throughout the study [5, 10]: micromolar
signs or symptoms of toxicity [5, 10]: No drug-related signs or symptoms of toxicity
clinical observations (stool) ([5]; cynomolgus monkeys, 1,000 and 2,000 mg/kg, may have been caused by excipients): loose and watery stool in a subset of the animals
inhibitory effect on hERG channel currents (hERG channel): do not exert a significant inhibitory effect
inhibition at 1 µM (hERG channel (IKr)): 0.2%
mutagenicity (In vitro Ames test): no evidence of mutagenicity
hot flashes (hot flashes): resolved greatly
plasma levels ([6]; for 10 hours): above 100 ng/ml and > 342 nM
Tmax ([6]; rat, plasma, oral, read-out: initial Tmax (converted)): ~30 min
EC50 [7]: 0.6 nM
concentration effective in counteracting/blocking SDF-1 function (SDF-1/CXCR4 [1]): 10 nM
effect of SDF-1 on cAMP reduction (SDF-1/CXCR4 [1]): blocked significantly in a dose-dependent manner
structural or numerical chromosome aberrations (CHO cells): no statistically significant increase in structural or numerical chromosome aberrations

Cc1ccc(NCc2ccc(CNc3ccc(C)cc3)cc2)cc1 [MSX-139]
IC50 (SDF-1/CXCR4 [8]): 10 nM

c1cncc(NCc2ccc(CNc3cccnc3)cc2)c1 [MSX-163]
IC50 (SDF-1/CXCR4 [8]): 10 nM

c1ccc(NCCc2ccc(CCNc3ccccc3)cc2)cc1 [MSX-170]
IC50 (SDF-1/CXCR4 [8]): < 100 nM

Cc1c(C)c(CNc2ccccc2)c(C)c(C)c1CNc1ccccc1 [MSX-172]
IC50 (SDF-1/CXCR4 [8]): 10 nM

c1ccc(NCc2ccc(CNc3ccccc3)c3ccccc23)cc1 [MSX-175]
IC50 (SDF-1/CXCR4 [8]): > 100 nM

Clc1nc(Cl)nc(NCc2ccc(CNc3nc(Cl)nc(Cl)n3)cc2)n1 [MSX-190]
IC50 (SDF-1/CXCR4 [8]): 10 nM

COc1ccccc1NCc1ccc(CNc2ccccc2OC)cc1 [MSX-206]
IC50 (SDF-1/CXCR4 [8]): 10 nM

COCc1ccc(CNc2ncccn2)cc1 [MSX-208]
IC50 (SDF-1/CXCR4 [8]): 100 nM

c1ccc(OCc2ccc(CNc3ncccn3)cc2)cc1 [MSX-209]
IC50 (SDF-1/CXCR4 [8]): 10 nM

c1ccc(SCc2ccc(CSc3ccccc3)cc2)cc1 [MSX-211]
IC50 (SDF-1/CXCR4 [8]): 1000 nM

c1ccc(OCc2ccc(CNc3ncccn3)cc2)nc1 [MSX-212]
IC50 (SDF-1/CXCR4 [8]): 100 nM

O=C(O)c1cccc(NCc2ccc(CNc3cccc(C(=O)O)c3)cc2)c1 [MSX-214]
IC50 (SDF-1/CXCR4 [8]): 100 nM

Clc1ccc(NCc2ccc(CNc3ncccn3)cc2)nc1 [MSX-219]
IC50 (SDF-1/CXCR4 [8]): 10 nM

N=C(N)NCc1ccc(CNC(=N)N)cc1 [WZ5S]
melting point: 278 to 281 °C (dec.)

c1ccc(NCCNCc2ccc(CNCCNc3ccccc3)cc2)cc1 [WZ8]
melting point: 42 to 43 °C

c1ccc(NCc2ccc(CNc3ccccc3)cc2)cc1 [WZ13]
melting point: 126 to 127 °C

O=C(Nc1ccccc1)c1cc(C(=O)Nc2ccccc2)cc(C(=O)Nc2ccccc2)c1 [WZ20]
melting point: 318 to 320 °C
